Laboratory results published in US20250144067A1, “PERSONALIZED STARVATION THERAPY FOR CANCER” (Faeth Therapeutics, Inc., priority 2021, published 2025).
Structures can show the parent of a compound that is named as a salt.

Tests used:
[1] = tested on: NCI-H292 lung cancer cells; assay: FDA drug screening, complete media vs cholesterol-free media without statin (TABLE 1); type: cell-based, human
[2] = tested on: NCI-H292 lung cancer cells; assay: FDA drug screening, complete media vs cholesterol-free media with simvastatin (TABLE 2); type: cell-based, human; details: for Cholesterol-free media + simvastatin (0.04 μM) / Complete Media: NCI-H292 cells
[3] = Complete minus Cholesterol-free; […]
[4] = NCI-H292 cells, cholesterol-free media without statin
[5] = Complete minus Cholesterol-free; >0 enhanced anti-cancer activity, about 0 neutral, <0 antagonist
[6] = FDA library drug in cholesterol-free media with simvastatin 0.04 μM
[7] = FDA library drug in complete media
[8] = complete media vs cholesterol-free media + simvastatin (0.04 μM), >0 enhanced anti-cancer activity, about 0 neutral, <0 antagonist
[9] = NCI-H292 cells, cholesterol-free media without statin, FDA drug library screen
[10] = NCI-H292 cells, complete media, FDA drug library screen
[11] = Complete minus Cholesterol-free; greater than 0 enhanced anti-cancer activity, about 0 neutral, below 0 antagonist
[12] = NCI-H292 cells, FDA drug library screen, cholesterol-free media without statin
[13] = drug in cholesterol-free media with simvastatin 0.04 μM
[14] = FDA drug library screen, cholesterol-free media with simvastatin 0.04 μM
[15] = FDA drug library screen, complete media
[16] = complete media minus cholesterol-free media + simvastatin, >0 enhanced anti-cancer activity, about 0 neutral, <0 antagonist

Molecule	Cholesterol-free [1, 4]	Complete ([1]; NCI-H292 cells, complete media)	Difference [1, 5]	Difference [2, 8]	Cholesterol-free [1, 9]	Complete [1, 10]	Cholesterol-free media + simvastatin (0.04 μM) [2, 13]	Complete Media ([2]; drug in complete media)	Cholesterol-free media + simvastatin (0.04 μM) [2, 14]	Complete Media [2, 15]	also measured
Aprotinin	0.7012	0.4863									Difference [1, 3]: −0.21; Cholesterol-free media + simvastatin (0.04 μM) ([2]; cholesterol-free media with simvastatin 0.04 μM, FDA drug library screen (TABLE 2)): 0.8532; Complete Media ([2]; complete media, FDA drug library screen (TABLE 2)): 0.8102; Difference ([2]; complete media minus cholesterol-free media + simvastatin (0.04 μM), […]): −0.04
CCCCCOC(=O)Nc1nc(=O)n([C@@H]2O[C@H](C)[C@@H](O)[C@H]2O)cc1F [Capecitabine]	1.138	0.9364	−0.20	−0.59							Cholesterol-free media + simvastatin (0.04 μM) [2, 6]: 1.236; Complete Media [2, 7]: 0.648
Cn1ncnc1[C@H]1c2n[nH]c(=O)c3cc(F)cc(c23)N[C@@H]1c1ccc(F)cc1 [Talazoparib tosylate]			0.05	−0.29	0.1398	0.1924					Cholesterol-free media + simvastatin (0.04 μM) [2, 6]: 0.5996; Complete Media [2, 7]: 0.312
O=C(O)CCCc1ccccc1 [4-Phenylbutyric acid]				−0.19			1.251	1.056			Difference [1, 11]: −0.13; Cholesterol-free [1, 12]: 1.208; Complete ([1]; NCI-H292 cells, FDA drug library screen, complete media): 1.079
CC(=O)[C@@]1(O)CC[C@H]2[C@@H]3C[C@H](C)C4=CC(=O)C=C[C@]4(C)[C@@]3(F)[C@@H](O)C[C@@]21C [Fluorometholone]				−0.18			0.7423	0.5602			Difference [1, 11]: −0.08; Cholesterol-free [1, 12]: 1.249
CC1(S(=O)(=O)[O-])CC(=O)c2ccccc2C1=O.[Na+] (stereo not shown) [Menadione bisulfite (sodium)]			0.03	−0.16	1.466	1.492	0.991	0.8295			
Cc1ncc(COP(=O)(O)O)c(C=O)c1O [Pyridoxal phosphate]				−0.20	1.045	1.512	1.11	0.9056			Difference ([1]; complete vs cholesterol-free media; >0 enhanced anti-cancer activity, about 0 neutral, <0 antagonist): 0.47
Ruxolitinib (phosphate)			−0.04	−0.19	0.6764	0.6315	0.8715	0.6795			
CCCCCCCCCCCCN1CCCCCC1=O [Laurocapram]			−0.06	−0.15		0.887			1.036	0.883	
CNC(=C[N+](=O)[O-])NCCSCc1csc(CN(C)C)n1 [Nizatidine]	1.253	1.026	−0.23	−0.14					1.118	0.9809	
CNCCC(Oc1ccc(C(F)(F)F)cc1)c1ccccc1 (stereo not shown) [Fluoxetine (hydrochloride)]	1.383	0.9864							0.8887	1.043	Difference ([1]; complete vs cholesterol-free media; greater than 0 enhanced anti-cancer activity, about 0 neutral, below 0 antagonists): −0.40; Difference [2, 16]: 0.15
Nc1c2ccccc2nc2ccccc12 [9-Aminoacridine]			−0.03		0.5968	0.5645			0.3257	0.5257	Difference [2, 16]: 0.20
COc1ccc2c3c1O[C@H]1C[C@@H](O)C=C[C@@]31CCN(C)C2 [Galanthamine (hydrobromide)]	1.284	1.033									Difference [1, 3]: −0.25; Cholesterol-free media + simvastatin (0.04 μM) ([2]; cholesterol-free media with simvastatin 0.04 μM, […]): 1.411; Complete Media ([2]; complete media, […]): 1.432; Difference ([2]; complete media minus cholesterol-free media + simvastatin, […]): 0.02
CC(C)(C)N.CCC[C@H](N[C@@H](C)C(=O)N1[C@H](C(=O)O)C[C@@H]2CCCC[C@@H]21)C(=O)OCC [Perindopril (erbumine)]	1.151	0.8989	−0.25	−0.13					0.9237	0.7917	
CCn1cc(C(=O)O)c(=O)c2ccc(C)nc21 [Nalidixic acid]	1.332	0.9692					1.203	0.9667			Difference ([1]; complete vs cholesterol-free media; […]): −0.36; Difference ([2]; complete media vs cholesterol-free media + simvastatin (0.04 μM), […]): −0.24
